Test results reported in patent US8895611B1, “Cytotoxic compounds for treating cancer” (King Fahd University of Petroleum and Minerals, priority 2013, dated 2014).

Key:
[1] = tested on: prostate cancer cells (PC-3); experiment: MTT cell proliferation / cytotoxicity assay with trypan blue dye exclusion, PC-3 cells; type: cell-based, human; conditions: for activity / inhibition against human prostate cancer cells (PC-3): after 24 and 72 hours of treatment, FIGS. 1A-3B
Description: (§1) In FIGS. 1A-3B, the cells were treated with a concentration of 10 μM of each compound.
(§2) The anti-proliferative effect was measured by MTT assay.
(§3) Six duplicate wells were set up for each sample, and cells untreated with a compound served as a control. Treatment was conducted at 24 and 72 hours, respectively. After incubation, 10 μL MTT (6 g/L, Sigma) was added to each well and the incubation was continued for 4 hours at 37° C. After removal of the medium, MTT stabilization solution (dimethylsulphoxide: ethanol=1:1) was added to each well, and shaken for ten minutes until all crystals were dissolved. Then, optical density was detected in a micro plate reader at 550 nm wavelength using an enzyme-linked immunosorbent assay (ELISA) reader. Each assay was performed in triplicate. Cell number and viability were determined by trypan blue dye exclusion analysis.
(§4) The cytotoxicity assay was performed with various concentrations of the synthesized gold (III) complexes on PC-3 and SGC-7901 cells.

[2] = tested on: human gastric cancer cells (SGC-7901); experiment: MTT cell proliferation / cytotoxicity assay with trypan blue dye exclusion, SGC-7901 cells; type: cell-based; conditions: for activity / inhibition against gastric cancer cells SGC-7901: after 24 and 72 hours of treatment, FIGS. 1A-3B
Description: as §1, §2, §3, §4

Row | Compound | activity / inhibition against human prostate cancer cells (PC-3) ([1]; 10 μM) | bioactivity on PC-3 cells, trans-(1R,2R) compared with trans-(1S,2S) isomer ([1]; conclusion from FIGS. 1A-6B) | activity / inhibition against gastric cancer cells SGC-7901 ([2]; 10 μM) | bioactivity on SGC-7901 cells, trans-(1R,2R) compared with trans-(1S,2S) isomer ([2]; conclusion from FIGS. 1A-6B) | cytotoxic effect on PC-3 cells, compound 1 compared with compound 2 ([1]; 10 μM, one, two and three days, FIG. 7A) | cell proliferation of PC-3 cells compared with SGC-7901 cells ([1]; fixed 10 μM, after 72 hours, FIGS. 1A and 1B) | cytotoxic effect on SGC-7901 cells, compound 1 compared with compound 2 ([2]; 10 μM, one, two and three days, FIG. 7B)
1 | N[C@H]1CCCC[C@@H]1N.[Cl][Au]([Cl])[Cl] [compound 3, (S,S)-(+)-1,2-(DACH)AuCl3] | moderate inhibition | no significant difference in the bioactivity | moderate inhibition | no significant difference in the bioactivity |  |  | 
2 | cis-(±)-1,2-(DACH)AuCl3 [compound 1] | potentially high activity |  | potentially high activity |  | higher cytotoxic effect in comparison with the same concentration of compound 2 | bit higher than that of the SGC-7901 cells | higher cytotoxic effect in comparison with the same concentration of compound 2
3 | trans-(±)-1,2-(DACH)AuCl3 [compound 2] | moderate inhibition |  | moderate inhibition |  |  |  | 
